Test results: patent publication US20020026051A1, “Dithiepino [6,5-b]pyridines, and related compositions and methods” (priority 1999, published 2002)

Each molecule was assayed against T1, calcium channel (Oryctolagus cuniculus, UniProt P15381) (assay: Assay for Inhibition of Nitrendipine Binding (3H-nitrendipine, heart membranes)). Conditions: 3H-nitrendipine displacement, rabbit heart membranes; Tables 1-5.
T1 construct: from tissue; host or cells: rabbit heart membrane preparation
Procedure: Female, New Zealand white rabbits (1-2 kg) are sacrificed by cervical dislocation, and the heart is immediately removed, cleaned and chopped into small pieces. The tissue is homogenized in 5× times volume of 0.05M Hepes buffer, pH 7.4. The homogenate is centrifuged at 4000 g for 10 minutes, and the supernatant is re-centrifuged at 42,000×g for 90 minutes. The resulting membrane pellet is resuspended (0.7 ml/g weight) in 0.05M Hepes, pH 7.4 and stored at […] until used. Each tube of the binding assay contains ^3H-nitrendipine (0.05-0.50 nM), buffer, membranes (0.10 ml), and test compound in a total volume of 1.0 ml. After 90 minutes at 4° C., the bound nitrendipine is separated from the unbound by filtration on Whatman GF/C filters. After rinsing, the filters are dried and counted in a liquid scintillation counter.
Non-specific binding of ^3H-nitrendipine (that amount bound in the presence of excess unlabelled nitrendipine) is subtracted from the total bound to obtain specifically bound radiolabeled nitrendipine. The amount of specifically bound nitrendipine in the presence of a test compound is compared to that amount bound in the absence of a compound. A percent displacement (or inhibition) can then be calculated.

T1 sequence (P15381 whole entry, other chains not shown): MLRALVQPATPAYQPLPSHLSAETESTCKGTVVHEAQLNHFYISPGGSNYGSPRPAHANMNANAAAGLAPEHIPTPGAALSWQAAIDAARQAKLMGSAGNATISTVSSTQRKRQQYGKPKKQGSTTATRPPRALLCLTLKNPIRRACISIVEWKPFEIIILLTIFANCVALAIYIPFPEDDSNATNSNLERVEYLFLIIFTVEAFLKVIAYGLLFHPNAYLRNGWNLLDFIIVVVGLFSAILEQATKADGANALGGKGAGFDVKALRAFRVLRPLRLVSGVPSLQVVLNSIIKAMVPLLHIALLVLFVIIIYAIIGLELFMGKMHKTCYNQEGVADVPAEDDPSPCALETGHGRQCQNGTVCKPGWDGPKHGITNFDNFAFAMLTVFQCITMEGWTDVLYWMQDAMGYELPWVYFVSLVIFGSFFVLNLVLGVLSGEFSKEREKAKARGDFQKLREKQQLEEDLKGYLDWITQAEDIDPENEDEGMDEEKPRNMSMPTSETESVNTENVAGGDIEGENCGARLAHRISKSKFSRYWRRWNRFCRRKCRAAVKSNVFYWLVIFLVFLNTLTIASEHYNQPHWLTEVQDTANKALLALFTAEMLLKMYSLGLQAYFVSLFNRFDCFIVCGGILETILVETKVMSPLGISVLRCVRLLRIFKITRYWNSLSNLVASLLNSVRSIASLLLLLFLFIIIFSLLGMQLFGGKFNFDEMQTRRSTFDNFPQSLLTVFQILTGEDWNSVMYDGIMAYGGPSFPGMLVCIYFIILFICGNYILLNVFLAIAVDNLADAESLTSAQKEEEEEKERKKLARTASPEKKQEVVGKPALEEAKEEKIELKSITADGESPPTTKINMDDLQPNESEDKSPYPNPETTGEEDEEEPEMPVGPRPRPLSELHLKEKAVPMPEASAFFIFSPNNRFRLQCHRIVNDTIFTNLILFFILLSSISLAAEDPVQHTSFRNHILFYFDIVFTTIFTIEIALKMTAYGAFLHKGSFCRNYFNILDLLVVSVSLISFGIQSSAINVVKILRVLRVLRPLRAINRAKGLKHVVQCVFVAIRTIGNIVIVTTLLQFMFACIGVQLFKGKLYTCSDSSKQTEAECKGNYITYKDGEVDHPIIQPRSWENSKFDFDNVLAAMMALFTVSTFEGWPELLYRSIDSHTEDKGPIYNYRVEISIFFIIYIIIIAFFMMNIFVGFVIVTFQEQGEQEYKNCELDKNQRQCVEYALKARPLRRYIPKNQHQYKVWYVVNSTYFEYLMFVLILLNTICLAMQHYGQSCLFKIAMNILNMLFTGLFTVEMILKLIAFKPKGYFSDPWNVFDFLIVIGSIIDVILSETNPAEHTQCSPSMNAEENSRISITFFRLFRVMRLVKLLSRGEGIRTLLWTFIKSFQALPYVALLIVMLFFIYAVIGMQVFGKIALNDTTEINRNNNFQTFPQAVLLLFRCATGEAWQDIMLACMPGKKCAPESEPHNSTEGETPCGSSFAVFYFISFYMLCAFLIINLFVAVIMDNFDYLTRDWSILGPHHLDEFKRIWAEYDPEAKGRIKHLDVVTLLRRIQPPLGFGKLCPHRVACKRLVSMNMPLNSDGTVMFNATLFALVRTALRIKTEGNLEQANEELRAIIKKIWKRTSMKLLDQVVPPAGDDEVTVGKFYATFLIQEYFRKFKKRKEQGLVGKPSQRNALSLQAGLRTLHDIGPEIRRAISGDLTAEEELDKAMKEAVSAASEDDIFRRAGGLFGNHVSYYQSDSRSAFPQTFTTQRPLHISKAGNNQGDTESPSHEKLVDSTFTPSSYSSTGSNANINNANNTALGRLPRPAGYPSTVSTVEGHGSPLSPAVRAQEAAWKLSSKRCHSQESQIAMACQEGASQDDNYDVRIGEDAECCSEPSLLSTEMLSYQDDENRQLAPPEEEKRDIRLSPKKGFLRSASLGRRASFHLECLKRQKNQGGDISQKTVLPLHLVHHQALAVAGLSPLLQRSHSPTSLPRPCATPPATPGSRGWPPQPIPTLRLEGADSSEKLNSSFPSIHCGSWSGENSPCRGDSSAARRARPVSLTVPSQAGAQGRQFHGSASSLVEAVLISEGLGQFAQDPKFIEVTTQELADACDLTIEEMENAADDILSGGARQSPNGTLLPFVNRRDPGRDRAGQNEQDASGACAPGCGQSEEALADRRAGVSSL
T1 sequence (P13806 27-960 partner limits assumed, other chains not shown): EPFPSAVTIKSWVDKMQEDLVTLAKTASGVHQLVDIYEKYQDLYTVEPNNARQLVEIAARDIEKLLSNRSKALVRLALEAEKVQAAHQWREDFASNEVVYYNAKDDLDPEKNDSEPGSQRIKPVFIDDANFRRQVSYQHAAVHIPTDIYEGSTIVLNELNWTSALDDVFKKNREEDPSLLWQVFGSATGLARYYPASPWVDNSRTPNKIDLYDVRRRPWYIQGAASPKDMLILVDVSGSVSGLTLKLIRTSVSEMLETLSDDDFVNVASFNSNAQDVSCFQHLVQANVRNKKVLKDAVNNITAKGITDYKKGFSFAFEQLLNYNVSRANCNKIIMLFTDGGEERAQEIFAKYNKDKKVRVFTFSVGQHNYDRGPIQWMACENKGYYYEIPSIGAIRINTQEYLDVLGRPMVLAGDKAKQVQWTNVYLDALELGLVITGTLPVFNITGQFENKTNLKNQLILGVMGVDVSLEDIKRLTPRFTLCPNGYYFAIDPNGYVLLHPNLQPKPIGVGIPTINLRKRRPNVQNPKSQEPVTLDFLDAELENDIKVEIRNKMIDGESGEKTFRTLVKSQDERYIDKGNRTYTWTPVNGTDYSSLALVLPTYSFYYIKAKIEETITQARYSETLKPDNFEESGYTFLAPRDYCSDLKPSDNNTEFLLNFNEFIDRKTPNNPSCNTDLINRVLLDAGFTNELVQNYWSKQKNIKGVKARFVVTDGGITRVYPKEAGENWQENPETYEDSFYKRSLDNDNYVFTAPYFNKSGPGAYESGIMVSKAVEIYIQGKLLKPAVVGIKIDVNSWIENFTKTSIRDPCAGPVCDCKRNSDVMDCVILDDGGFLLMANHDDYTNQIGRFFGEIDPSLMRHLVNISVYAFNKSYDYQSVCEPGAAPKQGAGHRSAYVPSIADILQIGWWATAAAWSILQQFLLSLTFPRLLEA
T1 sequence (P13806 961-1106 partner limits assumed, other chains not shown): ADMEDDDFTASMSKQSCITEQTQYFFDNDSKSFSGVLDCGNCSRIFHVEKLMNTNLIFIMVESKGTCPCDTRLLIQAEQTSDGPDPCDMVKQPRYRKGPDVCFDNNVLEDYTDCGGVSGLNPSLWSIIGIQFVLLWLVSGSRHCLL

Row | SMILES | IC50 [nM]
1 | CC1=C(C(=O)OCCN(C)Cc2ccccc2)C(c2ccccc2Cl)C2=C(CS(=O)(=O)CCS2(=O)=O)N1 (centres unmarked) [Compound 6, 5H-1,4-Dithiepino[6,5-b]pyridine-8-carboxylic acid, 9-(2-chlorophenyl)-2,3,6,9-tetrahydro-7-methyl-2-[methyl(phenylmethyl)amino]ethyl ester 1,1,4,4-tetraoxide] | 45
2 | CC1=C(C(=O)OCCN(C)Cc2ccccc2)C(c2ccccc2Cl)C2=C(CS(=O)(=O)CCCS2(=O)=O)N1 (centres unmarked) [Compound 29, 2H,6H-1,5-Dithiocino[3,2-b]pyridine-9-carboxylic acid, 10-(2-chlorophenyl)-3,4,7,10-tetrahydro-8-methyl-2-[methyl(phenylmethyl)amino]ethyl ester 1,1,5,5-tetraoxide] | 57
3 | COC(=O)C1=C(C)NC2=C(C1c1cccc(C(F)(F)F)c1F)S(=O)(=O)CCS(=O)(=O)C2 (centres unmarked) [Compound 17, 5H-1,4-Dithiepino[6,5-b]pyridine-8-carboxylic acid, 9-[2-fluoro-3-(trifluoromethyl)phenyl]-2,3,6,9-tetrahydro-7-methyl-methyl ester 1,1,4,4-tetraoxide] | 20
4 | CC1=C(C(=O)OCCN(C)Cc2ccccc2)C(c2cccc(C(F)(F)F)c2F)C2=C(CS(=O)(=O)CCS2(=O)=O)N1 (centres unmarked) [Compound 7, 5H-1,4-Dithiepino[6,5-b]pyridine-8-carboxylic acid, 9-[2-fluoro-3-(trifluoromethyl)phenyl]-2,3,6,9-tetrahydro-7-methyl-2-[methyl(phenylmethyl)amino]ethyl ester 1,1,4,4-tetraoxide] | 18
5 | COC(=O)C1=C(C)NC2=C(C1c1c(F)c(F)c(F)c(F)c1F)S(=O)(=O)CCS(=O)(=O)C2 (centres unmarked) [Compound 13, 5H-1,4-Dithiepino[6,5-b]pyridine-8-carboxylic acid, 2,3,6,9-tetrahydro-7-methyl-9-(pentafluorophenyl)-methyl ester 1,1,4,4-tetraoxide] | 27
6 | CC1=C(C(=O)OCCN(C)Cc2ccccc2)C(c2c(F)cccc2C(F)(F)F)C2=C(CS(=O)(=O)CCCS2(=O)=O)N1 (centres unmarked) [Compound 26, 2H,6H-1,5-Dithiocino[3,2-b]pyridine-9-carboxylic acid, 10-[2-fluoro-6-(trifluoromethyl)phenyl]-3,4,7,10-tetrahydro-8-methyl-2-[methyl(phenylmethyl)amino]ethyl ester 1,1,5,5-tetraoxide] | 28
7 | CC1=C(C(=O)OCCN(C)Cc2ccccc2)C(c2cccc([N+](=O)[O-])c2)C2=C(CS(=O)(=O)CCCS2(=O)=O)N1 (centres unmarked) [Compound 25, 2H,6H-1,5-Dithiocino[3,2-b]pyridine-9-carboxylic acid, 3,4,7,10-tetrahydro-8-methyl-10-(3-nitrophenyl)-2-[methyl(phenylmethyl)amino]ethyl ester 1,1,5,5-tetraoxide] | 10
8 | CC1=C(C(=O)OCCN(C)Cc2ccccc2)C(c2cccc([N+](=O)[O-])c2)C2=C(CS(=O)(=O)CCS2(=O)=O)N1 (centres unmarked) [Compound 8, 5H-1,4-Dithiepino[6,5-b]pyridine-8-carboxylic acid, 2,3,6,9-tetrahydro-7-methyl-9-(3-nitrophenyl)-2-[methyl(phenylmethyl)amino]ethyl ester 1,1,4,4-tetraoxide] | 43
9 | CC1=C(C(=O)OCCN(C)Cc2ccccc2)C(c2cc(F)c(F)c(F)c2)C2=C(CS(=O)(=O)CCS2(=O)=O)N1 (centres unmarked) [Compound 9, 5H-1,4-Dithiepino[6,5-b]pyridine-8-carboxylic acid, 2,3,6,9-tetrahydro-7-methyl-9-(3,4,5-trifluorophenyl)-2-[methyl(phenylmethyl)amino]ethyl ester 1,1,4,4-tetraoxide] | 13
10 | COC(=O)C1=C(C)NC2=C(C1c1ccccc1[N+](=O)[O-])S(=O)(=O)CCS(=O)(=O)C2 (centres unmarked) [Compound 19, 5H-1,4-Dithiepino[6,5-b]pyridine-8-carboxylic acid, 2,3,6,9-tetrahydro-7-methyl-9-(2-nitrophenyl)-methyl ester 1,1,4,4-tetraoxide] | 210

Same assay, conditions: 3H-nitrendipine displacement, rabbit heart membranes; Tables 6-7

Row | SMILES | IC50 [nM]
11 | CC1=C(C(=O)OCCCO)C(c2c(F)cccc2Cl)C2=C(CS(=O)(=O)CCS2(=O)=O)N1 (centres unmarked) [Compound 83] | 1210
12 | CC(=O)OCCCOC(=O)C1=C(C)NC2=C(C1c1c(F)cccc1Cl)S(=O)(=O)CCS(=O)(=O)C2 (centres unmarked) [Compound 68] | 340
13 | CC1=C(C(=O)OCCO)C(c2c(F)cccc2Cl)C2=C(CS(=O)(=O)CCS2(=O)=O)N1 (centres unmarked) [Compound 82] | 1000
14 | CC1=C(C(=O)OCC(=O)Oc2ccccc2)C(c2c(F)cccc2Cl)C2=C(CS(=O)(=O)CCS2(=O)=O)N1 (centres unmarked) [Compound 67] | 336
15 | CC1=C(C(=O)OCCNC(=O)OC(C)(C)C)C(c2c(F)cccc2Cl)C2=C(CS(=O)(=O)CCS2(=O)=O)N1 (centres unmarked) [Compound 79, 5H-[1,4]dithiepino[6,5-b]pyridine-8-carboxylic acid, 9-(2-chloro-6-fluorophenyl)-2,3,6,9-tetrahydro-7-methyl-, 2-[[(1,1-dimethylethoxy)carbonyl]amino]ethyl ester, 1,1,4,4-tetraoxide] | 768
16 | CC1=C(C(=O)OCCOC(=O)CNC(=O)OC(C)(C)C)C(c2c(F)cccc2Cl)C2=C(CS(=O)(=O)CCS2(=O)=O)N1 (centres unmarked) [Compound 81] | 946
17 | CC1=C(C(=O)OCCOC(=O)c2ccc(OC(C)C)cc2)C(c2c(F)cccc2Cl)C2=C(CS(=O)(=O)CCS2(=O)=O)N1 (centres unmarked) [Compound 35, 5H-[1,4]dithiepino[6,5-b]pyridine-8-carboxylic acid, 9-(2-chloro-6-fluorophenyl)-2,3,6,9-tetrahydro-7-methyl-, 2-[[4-(1-methylethoxy)benzoyl]oxy]ethyl ester, 1,1,4,4-tetraoxide] | 20
18 | CC1=C(C(=O)OCCOC(=O)CN(C)C(=O)c2ccccc2)C(c2c(F)cccc2Cl)C2=C(CS(=O)(=O)CCS2(=O)=O)N1 (centres unmarked) [Compound 58] | 153
19 | CCC(CC)C(=O)OCCOC(=O)C1=C(C)NC2=C(C1c1c(F)cccc1Cl)S(=O)(=O)CCS(=O)(=O)C2 (centres unmarked) [Compound 33] | 13
20 | CC1=C(C(=O)OCCOC(=O)C(C)C)C(c2c(F)cccc2Cl)C2=C(CS(=O)(=O)CCS2(=O)=O)N1 (centres unmarked) [Compound 57] | 143
21 | CC1=C(C(=O)OCCOC(=O)C2CCc3ccccc3C2)C(c2c(F)cccc2Cl)C2=C(CS(=O)(=O)CCS2(=O)=O)N1 (centres unmarked) [Compound 42, 7-methyl-9-[2-fluoro-6-chlorophenyl]-2,3,6 9-tetrahydo-1,1,4,4-tetraoxide 5H-1,4-Dithiepino[6,5-b]pyridine-8-carboxlic acid 2-[1,2,3,4-tetrahydo-2-napthoyl]oxyethyl ester] | 44
22 | CC1=C(C(=O)OCC(=O)OCCN(C)Cc2ccccc2)C(c2c(F)cccc2Cl)C2=C(CS(=O)(=O)CCS2(=O)=O)N1 (centres unmarked) [Compound 74, 7-methyl-9-[2-fluoro-6-chlorophenyl]-2,3,6,9-tetrahydro-1,1,4,4-tetraoxide 5H-1,4-Dithiepino[6,5-b]pyridine-8-carboxylic acid carboxy-2-(1-N-methylbenzylamine)ethyl ester] | 420
23 | CC1=C(C(=O)OCCOC(=O)C2CCCCCC2)C(c2c(F)cccc2Cl)C2=C(CS(=O)(=O)CCS2(=O)=O)N1 (centres unmarked) [Compound 39, 5H-[1,4]dithiepino[6,5-b]pyridine-8-carboxylic acid, 9-(2-chloro-6-fluorophenyl)-2,3,6,9-tetrahydro-7-methyl-, 2-[(cycloheptylcarbonyl)oxy]ethyl ester, 1,1,4,4-tetraoxide] | 38
24 | CC1=C(C(=O)OCCC2CCOC2=O)C(c2c(F)cccc2Cl)C2=C(CS(=O)(=O)CCS2(=O)=O)N1 (centres unmarked) [Compound 85] | 1690
25 | CC1=C(C(=O)OCCOC(=O)C(C)(C)C)C(c2c(F)cccc2Cl)C2=C(CS(=O)(=O)CCS2(=O)=O)N1 (centres unmarked) [Compound 89] | 3700
26 | CC1=C(C(=O)OCCC2CCOC2=O)C(c2cccc(Cl)c2Cl)C2=C(CS(=O)(=O)CCS2(=O)=O)N1 (centres unmarked) [Compound 63] | 194
27 | CC1=C(C(=O)OCCCCOC(=O)c2ccccc2)C(c2c(F)cccc2Cl)C2=C(CS(=O)(=O)CCS2(=O)=O)N1 (centres unmarked) [Compound 49] | 57
28 | CC1=C(C(=O)OCCOC(=O)C(N)CCCCN)C(c2c(F)cccc2Cl)C2=C(CS(=O)(=O)CCS2(=O)=O)N1 (centres unmarked) [Compound 96] | 51000
29 | CC1=C(C(=O)OCCOC(=O)CCC(C)C)C(c2c(F)cccc2Cl)C2=C(CS(=O)(=O)CCS2(=O)=O)N1 (centres unmarked) [Compound 36] | 20
30 | CC1=C(C(=O)OCCOC(=O)C(C)Cc2ccccc2)C(c2c(F)cccc2Cl)C2=C(CS(=O)(=O)CCS2(=O)=O)N1 (centres unmarked) [Compound 37] | 33
31 | CC1=C(C(=O)OCc2oc(=O)oc2C)C(c2c(F)cccc2Cl)C2=C(CS(=O)(=O)CCS2(=O)=O)N1 (centres unmarked) [Compound 73] | 417
32 | CC1=C(C(=O)OCCOC(=O)c2ccccc2)C(c2c(F)cccc2Cl)C2=C(CS(=O)(=O)CCS2(=O)=O)N1 (centres unmarked) [Compound 51] | 62
33 | CC1=C(C(=O)OCC(=O)OC(C)(C)C)C(c2c(F)cccc2Cl)C2=C(CS(=O)(=O)CCS2(=O)=O)N1 (centres unmarked) [Compound 69, 7-methyl-9-[2-fluoro-6-chlorophenyl]-2,3,6,9-tetrahydro-1,1,4,4-tetraoxide 5H-1,4-Dithiepino[6,5-b]pyridine-8-carboxylic acid 2-(1,1-dimethylethyloxy)-2-oxoethyl ester] | 356
34 | COc1cccc(C(=O)OCCOC(=O)C2=C(C)NC3=C(C2c2c(F)cccc2Cl)S(=O)(=O)CCS(=O)(=O)C3)c1 (centres unmarked) [Compound 40] | 41
35 | CC1=C(C(=O)OCCOC(=O)C(C)C)C(c2c(F)cccc2Cl)C2=C(CS(=O)(=O)CCS2(=O)=O)N1 (centres unmarked) [Compound 64] | 220
